Reference: publication PMC7355684 (Pharmaceutics, 2020)
Where a SMILES comes first, the peptide text is derived from it. The star is where a group is joined. Daunorubicin(13-NOCH2CO) = COc1cccc2c1C(=O)c1c(O)c3c(c(O)c1C2=O)C[C@@](O)(C(C)=NOCC(=O)*)C[C@@H]3O[C@H]1C[C@H](N)[C@H](O)[C@H](C)O1

How the values were obtained:
[1] = test system: PANC-1 cells; test: cells; type: cell-based, human
Experimental: This measurement is based on the registration of electrical resistance (impedance, Z) in alternating current (AC) field. The living cells transplanted to the gold measuring electrodes are physically insulated by phospholipid bilayer that covers them. This instrumentally measurable property changes (decreases) in response to cellular cytotoxic agents. Our measurements were performed on xCELLigence single plate (ACEA Biosciences, San Diego, CA, USA) dedicated for impedimetric analysis of cellular samples at 37 °C and 5% CO2.
During the initial phase of the experiments—the baseline recording—a special 96-well cell culture plate, E-plate (ACEA Biosciences), equipped with measuring electrodes, was pretreated with freshly prepared cell culture medium (for 60 min; sampling frequency: 1 min). Subsequently, PANC-1 cells were plated at a cell density of 10^4 cells/well. During the 24 h incubation, the cells evenly covered the electrodes at the bottom of the wells of the E-plate. The resulting confluent cell cultures were then treated with the test substances at the following final concentrations: 10^−6, 10^−5, 10^−4 M. Total treatment duration was 72 h and the sampling rate was 1 min (0–24 h); and then 15 min (48–72 h). In our measurements, three replicates were used, the control was the drug-free medium. […] The CI results were analyzed with xCELLigence RTCA 2.0 software and Origin Pro 8.0 software.

[2] = in vivo; cited from earlier work
From the text: Daunomycin (Dau) was applied as a payload. It was indicated in our previous research that Dau can be attached to peptides via oxime linkage easily with good yields. […] It might be because of the lower DNA binding affinity of the Dau containing metabolite compared to Dau. However, the oxime linked conjugates are stable in the circulation and no loss of Dau can be observed before reaching the target cells.

[3] = test system: PANC-1 cells; test: Colorimetric (alamarBlue) cytotoxicity on PANC-1; type: cell-based; details: Homo sapiens, concentration needed to decrease the cell viability by 50%, read-out: IC50 (colorimetry)
Experimental: (§1) The protocol for the alamarBlue-assay was similar to the method which was published earlier, with some minor modifications. Briefly, the cell seeding occurred on 96-well cell culture plates (Sarstedt AG, Nümbrecht, Germany) at 10^4 cells/well concentration. After a 24 h long culturing period, the treatment was carried out with the conjugates at 10^−4, 10^−5 and 10^−6 M final concentrations for 24, 48 and 72 h. In the next steps, the alamarBlue reagent (0.15 mg/mL, Sigma-Aldrich) dissolved in phosphate-buffered saline (PBS; pH = 7.2), was added to the wells. After 6 h incubation with the reagent, the fluorescence intensity of the samples was obtained by an LS-50B Luminescence Spectrometer (Perkin Elmer Ltd., Buckinghamshire, UK) or a Fluoroskan^TM FL Microplate Fluorometer and Luminometer (Thermo Scientific, Waltham, MA, USA) by using the following settings: λex = 560 nm and λem = 590 nm.
Three parallels were performed per treatment group. […] Fluorescence intensities of the samples treated with various concentrations of conjugates were expressed as a percentage of the fluorescence of control.
To confirm that the different methods can be used to compare the effects of conjugates on the different model cells, the cytotoxicity of Dau was measured by both impedimetric and colorimetric methods on PANC-1 cells.

[4] = test system: PANC-1 cells; test: Flow cytometric cell surface binding and internalization; type: cell-based, human; details: 10^-5 M, flow cytometry, mean of 2 parallels ± SD
Experimental: Cell surface binding and internalization of the conjugates were performed by flow cytometry (FACS-Calibur, Becton Dickinson, San Jose, CA, USA) based on the detection of the fluorescence activity of Dau (λex = 488 nm, λem = 585 nm) linked to the peptides. Studies of binding and uptake were performed on PANC-1 cells.
Cells were seeded (2.5 × 10^5 cells/mL, 900 μL/well) on 12-well plates, 24 h prior to the treatment with conjugates and free Dau. To distinguish the cell surface binding and internalization of conjugates, the cells were treated with the conjugate solutions at a final concentration of 10^−5 M at two temperatures (37 °C and 4 °C) in parallel. After the incubation period of 30 min, cells were washed with PBS and were removed from the plate using TrypLE (Thermo Fisher Scientific, Waltham, MA, USA) cell-dissociation reagent, thus avoiding cell surface protein degradation. […] After the centrifugation of the cell suspension, the cell pellets were resuspended in PBS (400 μL/tube) and the samples were measured by a flow cytometer.
To determine the fluorescence intensity and to evaluate the results CellQuest Pro (Becton Dickinson) and Flowing2.5.1. […] The instrument determines the relative fluorescence intensity of Dau built in the conjugates as geometric mean channel (GeoMean) value. […]

[5] = test system: s.c. PANC-1 human pancreatic carcinoma; test: Subcutaneous PANC-1 human pancreatic cancer mouse model; type: in vivo, SCID mice
Experimental: For establishing pancreatic tumor in experimental animals, PANC-1 cells were used, which were cultured in RPMI 1640 medium (Lonza), supplemented with 10% heat-inactivated FBS (Biosera, Nuaille, France), and 1% penicillin/streptomycin (Lonza). They were cultured in sterile T175 flasks (Sarstedt AG) with a ventilation cap at 37 °C in a humidified atmosphere with 5% CO2.
Pancreatic cancer (PANC-1) cells were injected into SCID male mice (22–34 g) subcutaneously (s.c.), 3 × 10^6 cells per animal in 200 µL M199 (Sigma-Aldrich) per animal. The (i.p.) administration of treatment started 10 days after cells inoculation when the average tumor volume was 36 mm^3. Four groups with 7 animals per group were established and treated. The doses and schedule were as follows: control group was treated with sterile water used for the solubilization of Dau and the conjugates, while animals in the group administered with free Dau were treated on days 10, 19 and 24 after cell inoculation with a dose of 1 mg/kg. Mice administered with the conjugate 4 were separated in two groups and treated either with a dose of 10 mg/kg Dau-content (21.6 mg/kg conjugate) or with a dose of 2 mg/kg Dau-content (4.3 mg/kg conjugate) on days 10, 13, 19, 21, 24, 28, 31, 34, 39, 42, 46, 49, 53, 56, 60, 63, 67 and 70 after cells inoculation. Animal weight and tumor volumes were measured initially when the treatment started and at periodic intervals according to the treatment schedule. A digital caliper was used to measure the longest (a) and the shortest diameter (b) of a given tumor. The tumor volume was calculated using the formula V = ab^2 × π/6, where a and b represent the measured parameters (length and width). The experiment was terminated on day 74 after cells inoculation (day 65 of treatment). Animals treated with free Dau had to be terminated after 3 treatments on day 28 after cells inoculation (day 19 of treatment) due to significant weight-loss. Animals were sacrificed by cervical dislocation; primary tumors and livers were harvested and weighted.

[6] = Acute and chronic toxicity in healthy mice; type: in vivo; details: healthy Balb/c male mice, 3 per group; i.p.; acute 3.125, 6.25, 12.5, 25 mg/kg Dau-content single; chronic 10 mg/kg Dau-content on days 1, 3, 7, 9, 11; 14 days
Experimental: Prior to the determination of in vivo antitumor activity, the acute and chronic toxicity studies of conjugate 4 (Dau=Aoa-GFLG-K(Dau=Aoa)-SKAAKN-OH) were investigated. Healthy Balb/c male mice (3 animals in each group with 29–33 g body weight) were used for these experiments. The conjugate was dissolved in sterile water for injection (Pharmamagist Kft., Budapest, Hungary) and injected in a volume of 0.1 mL/10 g body weight using the appropriate concentrations. In acute toxicity study, intraperitoneal (i.p.) administration of the conjugate 4 was carried out in 4 different doses: 3.125, 6.25, 12.5 and 25 mg/kg Dau-content. In chronic toxicity study, mice were treated with a dose of 10 mg/kg Dau-content of the conjugate on days 1, 3, 7, 9 and 11 (5 treatments). The toxicity was evaluated on the basis of life span, behavior and looking of the mice, as well as body weight. These parameters were followed for 14 days.

[7] = test system: A2058 cells; type: cell-based, human; details: 1e-5 M
Experimental: (§2) EBC-1 and Colo-205 model cells have weak/negligible adherent properties, and A2058 cells could not produce constant cell index values. Therefore, a colorimetric assay (alamarBlue-assay) was chosen instead of the xCELLigence system to investigate the viability of these model cells treated with the conjugates. Due to the growth characteristics of NHDF cells, alamarBlue-assay was performed also on this cell line.
as §1
(§3) Three parallels were performed per treatment group. In the case of controls, an equivalent volume of cell culture media was added to the cell. Fluorescence intensities of the samples treated with various concentrations of conjugates were expressed as a percentage of the fluorescence of control.

[8] = test system: Colo-205 cells; type: cell-based, human; details: 1e-5 M
Experimental: as §2, §1, §3

[9] = test system: EBC-1 cells; type: cell-based, human; details: 1e-5 M
Experimental: as §2, §1, §3

| Structure (SMILES) | IC50 ([1]; Homo sapiens, PANC-1, read-out: IC50 (impedimetry)) [nM] | Maximum tolerated dose (MTD) [2] [mg/kg] | IC50 [3] [nM] | Relative fluorescence intensity (GeoMean values), Cellular uptake ([4]; 30 min, GeoMean at 37 °C minus GeoMean at 4 °C) | Relative fluorescence intensity (GeoMean values), Binding ([4]; 30 min at 4 °C, Dau fluorescence, corrected for autofluorescence) | Animal weight decrease compared to start of the experiment ([5]; free Dau 1 mg/kg i.p., 3 treatments, day 28 after cell inoculation) [%] | Decrease of average liver/body weight ratio vs control ([5]; free Dau 1 mg/kg i.p., three times, day 28 after cell inoculation) [%] | Inhibition of tumor growth (tumor volume) ([5]; free Dau 1 mg/kg i.p., day 28 after cell inoculation (day 19 of treatment)) [%] | Liver / body weight (printed in Figure 9D, %) ([5]; free Dau 1 mg/kg, three treatments, day 28, relative to control) [%] | Acute and chronic toxicity (body weight, general looking, behavior) [6] | Cell viability at 10^−6 M ([1]; 24 h, 1e-6 M) | Viability after 24 h ([1]; 24 h, 1e-5 M) [%] | Viability (%) at 10-5 M concentration, after 72 h incubation, A2058 [7] [%] | Viability (%) at 10-5 M concentration, after 72 h incubation, Colo-205 [8] [%] | Viability (%) at 10-5 M concentration, after 72 h incubation, EBC-1 [9] [%] |
| --- | --- | --- | --- | --- | --- | --- | --- | --- | --- | --- | --- | --- | --- | --- | --- |
| COc1cccc2c1C(=O)c1c(O)c3c(c(O)c1C2=O)C[C@@](O)(C(C)=O)C[C@@H]3O[C@H]1C[C@H](N)[C@H](O)[C@H](C)O1 [Dau, Daunomycin] | 189 | 1 to 2 | 179 | 702.048 ± 84.340 | 72.057 ± 3.907 | 21 | 29.1 | 35.7 | 70.9 | – | – | – | – | – | – |
| COc1cccc2c1C(=O)c1c(O)c3c(c(O)c1C2=O)C[C@@](O)(C(C)=NOCC(=O)NCCCC[C@H](NC(=O)CNC(=O)[C@H](CC(C)C)NC(=O)[C@H](Cc1ccccc1)NC(=O)CNC(=O)CON=C(C)[C@]1(O)Cc2c(O)c4c(c(O)c2[C@@H](O[C@H]2C[C@H](N)[C@H](O)[C@H](C)O2)C1)C(=O)c1c(OC)cccc1C4=O)C(=O)N[C@@H](CO)C(=O)N[C@@H](CCCCN)C(=O)N[C@@H](C)C(=O)N[C@@H](C)C(=O)N[C@@H](CCCCN)C(=O)N[C@@H](CC(N)=O)C(=O)O)C[C@@H]3O[C@H]1C[C@H](N)[C@H](O)[C@H](C)O1 [conjugate 4, Dau=Aoa-GFLG-K(Dau=Aoa)SKAAKN-OH] ({Daunorubicin(13-NOCH2CO)}-GFLGK(Daunorubicin(13-NOCH2CO))SKAAKN-OH) | – | – | – | – | – | – | – | – | – | not toxic at the applied concentrations | higher than 100% | 91 | 29.8 ± 4.5 | 19.8 ± 0.5 | 32.2 ± 4.2 |
